From patent US20240182436A1, “SUBSTITUTED SULFONAMIDE-CHROMAN COMPOUNDS, AND PHARMACEUTICAL COMPOSITIONS, AND METHODS OF USE THEREOF” (priority 2021, published 2024)

test system: Harmaline-induced tremor; assay: Harmaline-induced Tremor Model; assay type: in vivo; settings: Mus musculus, ip, adult male CD1 mice; test article 30 mg/kg i.p.; harmaline 30 mg/kg i.p.; read-out: Tremor Suppression Activity (magnitude of tremor suppression in percent compared to vehicle)
From the text: Harmaline-induced Tremor: Harmaline-induced tremor is widely recognized as an animal model of Essential Tremor (ET). Following acute administration, harmaline produces an 8-16 Hz tremor in rodents, cats, and monkeys that, like ET, is postural and kinetic, involving appendicular and axial musculature (Handforth, A. (2012). Harmaline tremor: underlying mechanisms in a potential animal model of essential tremor. Tremor and Other Hyperkinetic Movements (NY), 2, 02-92-769-1; Handforth, A. (2016). Linking Essential Tremor to the Cerebellum-Animal Model Evidence. Cerebellum, 15(3), 285-298; LeDoux, M. (2005). Harmaline tremor. In Movement Disorders. Elsevier Inc.; Louis, E. D. (2014). Re-thinking the biology of essential tremor: From models to morphology. Parkinsonism and Related Disorders, 20 (SUPPL.1), S88-S93). […] Clinical agents that suppress ET in patients are generally effective in the harmaline-induced tremor model (Handforth 2016). Following acute dosing of harmaline in mice, the tremor frequency (10-20 Hz) is typically recorded using an automated force plate-based system.
Procedure: Tremor activity was measured using a custom-made testing apparatus containing a piezoelectric sensing platform which was connected to an amplifier (A-M Systems model 1700). Adult male CD1 mice were brought to the experiment room for acclimatization 1 h prior to testing. Mice were first placed inside the testing apparatus for 10 min baseline habituation. After the initial habituation, mice were treated with vehicle (10 ml/kg) or test article (30 mg/kg, i.p.) and placed back in the apparatus for an additional 20 min baseline recording. Subsequently, animals were injected with harmaline (30 mg/kg, i.p.) and tremor activity was measured for 20 min. The electric signal of tremor activity was amplified at a sampling rate of 512 Hz with a multichannel amplifier and then acquired, quantized, and digitized by a data acquisition unit (CED Micro 1401). The software Spike2 (v 7.07, Cambridge Electronic Design, Cambridge, UK) was used to analyze the tremor signal by performing Fourier transformation of the data into frequency spectra. Changes in absolute power were expressed relative to each animal's 20-min baseline for the frequencies of 10-20 Hz. Comparisons between treatment and respective vehicle groups were assessed with two-tailed, Student's t-test. The level of statistical significance was defined as p<0.05 (see, e.g., Table 2.1) The magnitude of tremor suppression in percent compared to vehicle is shown in Table 2.2.
A tremor suppression score was defined as the magnitude of tremor suppression in percent compared to vehicle: ≤24% (D), 25-55% (C), 56-70% (B) and 71-100% (A). Not tested (---).

Compared with CC[C@H]([C@@H]1CCOc2cc(F)ccc21)S(N)(=O)=O (stereo in doubt) [Compound 26, (R*)-1-((R*)-7-fluorochroman-4-yl)propane-1-sulfonamide], CC[C@@H]([C@H]1CCOc2cc(F)ccc21)S(N)(=O)=O (stereo in doubt) [Compound 25, (S*)-1-((S*)-7-fluorochroman-4-yl)propane-1-sulfonamide] is lower in inhibition in vivo at 30 mg/kg: 71 to 100% for the first, 56 to 70% for the second.

Compared with NS(=O)(=O)CC1CCOc2cc(C(F)(F)F)ccc21 (single isomer, unassigned) [Compound 37, (S*)-(7-(trifluoromethyl)chroman-4-yl)methanesulfonamide], NS(=O)(=O)CC1CCOc2cc(Cl)ccc21 (single isomer, unassigned) [Compound 31, (S*)-(7-chlorochroman-4-yl)methanesulfonamide] is higher in inhibition in vivo at 30 mg/kg: 56 to 70% for the first, 71 to 100% for the second.

C[C@@H]1COc2cc(F)ccc2[C@H]1NS(N)(=O)=O (relative stereo) [Compound 76, (3(S*),4(S*))-7-fluoro-3-methyl-4-(sulfamoylamino)-3,4-dihydro-2(H)-chromene] and C[C@@H]1COc2cc(F)ccc2[C@@H]1NS(N)(=O)=O (stereo in doubt) [Compound 73, (3(S*),4(R*))-7-fluoro-3-methyl-4-(sulfamoylamino)-3,4-dihydro-2(H)-chromene] fall in the same range of inhibition in vivo at 30 mg/kg: 56 to 70% for the first, 56 to 70% for the second.

Compared with NS(=O)(=O)N[C@@H]1CCOc2cc(F)ccc21 (stereo in doubt) [Compound 72, 4(R*))-7-fluoro-4-(sulfamoylamino)-3,4-dihydro-2(H)-chromene], NS(=O)(=O)N[C@H]1CCOc2cc(F)ccc21 (stereo in doubt) [Compound 71, 4(S*))-7-fluoro-4-(sulfamoylamino)-3,4-dihydro-2(H)-chromene] is higher in inhibition in vivo at 30 mg/kg: 25 to 55% for the first, 56 to 70% for the second.

First: C[C@H]1COc2ccccc2[C@H]1CS(N)(=O)=O (stereo in doubt) [Compound 39, ((3R*,4S*)-3-methylchroman-4-yl)methanesulfonamide]
Second: C[C@H]1COc2ccccc2[C@@H]1CS(N)(=O)=O (stereo in doubt) [Compound 42, ((3R*,4R*)-3-methylchroman-4-yl)methanesulfonamide]
The inhibition in vivo at 30 mg/kg of the first is higher: 25 to 55% for the first, no more than 24% for the second.

C[C@@H]1COc2cc(F)c(F)cc2[C@H]1CS(N)(=O)=O (stereo in doubt) [Compound 9, ((3S*,4S*)-6,7-difluoro-3-methylchroman-4-yl)methanesulfonamide] and C[C@@H]1COc2cc(F)c(F)cc2[C@@H]1CS(N)(=O)=O (stereo in doubt) [Compound 8, ((3S*,4R*)-6,7-difluoro-3-methylchroman-4-yl)methanesulfonamide] fall in the same range of inhibition in vivo at 30 mg/kg: 25 to 55% for the first, 25 to 55% for the second.

N#Cc1ccc2c(c1)OCCC2CS(N)(=O)=O (single isomer, unassigned) [Compound 59, (S*)-(7-cyanochroman-4-yl)methanesulfonamide] and CN([C@@H]1CCOc2cc(F)ccc21)S(N)(=O)=O (stereo in doubt) [Compound 70, 4(R*))-7-fluoro-4[methyl(sulfamoyl)amino]-3,4-dihydro-2(H)-chromene] cannot be ordered by inhibition in vivo at 30 mg/kg: no more than 24% for the first, no more than 24% for the second.

NS(=O)(=O)C1(C2CCOc3cc(F)ccc32)CC1 (single isomer, unassigned) [Compound 27, (S*)-1-(7-fluorochroman-4-yl)cyclopropane-1-sulfonamide] and CN([C@H]1CCOc2cc(F)ccc21)S(N)(=O)=O (stereo in doubt) [Compound 69, 4(S*))-7-fluoro-4-[methyl(sulfamoyl)amino]-3,4-dihydro-2(H)-chromene] cannot be ordered by inhibition in vivo at 30 mg/kg: no more than 24% for the first, no more than 24% for the second.

C[C@H]1COc2cc(F)c(F)cc2[C@H]1CS(N)(=O)=O (stereo in doubt) [Compound 7, ((3R*,4S*)-6,7-difluoro-3-methylchroman-4-yl)methanesulfonamide] and C[C@H]1COc2ccc(F)cc2[C@H]1CS(N)(=O)=O (relative stereo) [Compound 53, ((3R*,4S*)-6-fluoro-3-methylchroman-4-yl)methanesulfonamide] fall in the same range of inhibition in vivo at 30 mg/kg: 25 to 55% for the first, 25 to 55% for the second.

First: CC1(C)COc2cc(F)ccc2C1CS(N)(=O)=O (single isomer, unassigned) [Compound 43, (S*)-(7-fluoro-3,3-dimethylchroman-4-yl)methanesulfonamide]
Second: CC[C@@H]1COc2cc(F)ccc2[C@@H]1CS(N)(=O)=O (stereo in doubt) [Compound 20, ((3S*,4R*)-3-ethyl-7-fluorochroman-4-yl)methanesulfonamide]
The inhibition in vivo at 30 mg/kg of the first is lower: no more than 24% for the first, 71 to 100% for the second.

First: CC[C@@H]1C[C@H](CS(N)(=O)=O)c2ccc(F)cc2O1 (stereo in doubt) [Compound 11, ((2R*,4S*)-2-ethyl-7-fluorochroman-4-yl)methanesulfonamide]
Second: C[C@@H]1C[C@H](CS(N)(=O)=O)c2ccccc2O1 (stereo in doubt) [Compound 33, ((2R*,4S*)-2-methylchroman-4-yl)methanesulfonamide]
The inhibition in vivo at 30 mg/kg of the first is higher: 71 to 100% for the first, 25 to 55% for the second.

Compound C[C@@H]1COc2ccccc2[C@@H]1CS(N)(=O)=O (stereo in doubt) [Compound 40, ((3S*,4R*)-3-methylchroman-4-yl)methanesulfonamide] has an inhibition in vivo at 30 mg/kg of 25 to 55%.

same assay, conditions: adult male CD1 mice; test article 30 mg/kg i.p.; harmaline 30 mg/kg i.p.

In the case of NS(=O)(=O)CC1CCOc2c1ccc(F)c2F (single isomer, unassigned) [Compound 16, (R*)-(7,8-difluorochroman-4-yl)methanesulfonamide], the “Tremor Suppression Activity (magnitude of tremor suppression in percent compared to vehicle)” value is reported as “B (56-70% (B))”.
With CC1(C)CC(CS(N)(=O)=O)c2ccc(F)cc2O1 (single isomer, unassigned) [Compound 46, (S*)-(7-fluoro-2,2-dimethylchroman-4-yl)methanesulfonamide] the “Tremor Suppression Activity (magnitude of tremor suppression in percent compared to vehicle)” value was “A (71-100% (A))”.
With CC1(C)CC(CS(N)(=O)=O)c2cc(F)c(F)cc2O1 (single isomer, unassigned) [Compound 5, (S*)-(6,7-difluoro-2,2-dimethylchroman-4-yl)methanesulfonamide] the “Tremor Suppression Activity (magnitude of tremor suppression in percent compared to vehicle)” value was “C (25-55% (C))”.
With NS(=O)(=O)CC1CCOc2cc(C(F)(F)F)ccc21 (single isomer, unassigned) [Compound 38, (R*)-(7-(trifluoromethyl)chroman-4-yl)methanesulfonamide] the “Tremor Suppression Activity (magnitude of tremor suppression in percent compared to vehicle)” value was “A (71-100% (A))”.
For NS(=O)(=O)CC1CC2(CCC2)Oc2cc(F)ccc21 (single isomer, unassigned) [Compound 4, (R*)-(7-fluorospiro[chromane-2,1′-cyclobutan]-4-yl)methane-sulfonamide], the “Tremor Suppression Activity (magnitude of tremor suppression in percent compared to vehicle)” value was “B (56-70% (B))”.
NS(=O)(=O)CC1CCOc2c1ccc(F)c2F (single isomer, unassigned) [Compound 15, (S*)-(7,8-difluorochroman-4-yl)methanesulfonamide] was tested, and the “Tremor Suppression Activity (magnitude of tremor suppression in percent compared to vehicle)” value was “C (25-55% (C))”.
In the case of NS(=O)(=O)C1(C2CCOc3cc(F)ccc32)CC1 (single isomer, unassigned) [Compound 28, (R*)-1-(7-fluorochroman-4-yl)cyclopropane-1-sulfonamide], the “Tremor Suppression Activity (magnitude of tremor suppression in percent compared to vehicle)” value is reported as “C (25-55% (C))”.
For CC1(C)CC(CS(N)(=O)=O)c2cc(F)c(F)cc2O1 (single isomer, unassigned) [Compound 6, (R*)-(6,7-difluoro-2,2-dimethylchroman-4-yl)methanesulfonamide], the “Tremor Suppression Activity (magnitude of tremor suppression in percent compared to vehicle)” value was “A (71-100% (A))”.
For NS(=O)(=O)CC1CC2(CCC2)Oc2cc(F)ccc21 (single isomer, unassigned) [Compound 3, (S*)-(7-fluorospiro[chromane-2,1′-cyclobutan]-4-yl)methane-sulfonamide], the “Tremor Suppression Activity (magnitude of tremor suppression in percent compared to vehicle)” value was “C (25-55% (C))”.
In the case of NS(=O)(=O)CC1CC2(CC2)Oc2cc(F)ccc21 (single isomer, unassigned) [Compound 2, (R*)-(7-fluorospiro[chromane-2,1′-cyclopropan]-4-yl)methanesulfonamide], the “Tremor Suppression Activity (magnitude of tremor suppression in percent compared to vehicle)” value is reported as “A (71-100% (A))”.

same assay, conditions: adult male CD1 mice; test article 30 mg/kg i.p.; harmaline 30 mg/kg i.p.; 10-20 Hz power over 20 min relative to 20-min baseline

In order of falling “Tremor power relative to baseline (mean ± s.e.m.)” value:
1. CC1(C)CC(CS(N)(=O)=O)c2ccc(F)cc2O1 (single isomer, unassigned) [Compound 46, (S*)-(7-fluoro-2,2-dimethylchroman-4-yl)methanesulfonamide]  145 ± 27
2. CC[C@@H]1C[C@H](CS(N)(=O)=O)c2ccc(F)cc2O1 (stereo in doubt) [Compound 11, ((2R*,4S*)-2-ethyl-7-fluorochroman-4-yl)methanesulfonamide]  134 ± 32
